Data: publication PMC12647218 (Scientific Reports, 2025)

Columns and labels:
[1] = target: Acetylcholinesterase from Electrophorus electricus (electric eel) (Electrophorus electricus, UniProt O42275); test: biochemical
[2] = target: Butyrylcholinesterase from equine serum (Equus caballus, UniProt P81908); test: BChE inhibition, modified colorimetric Ellman method; assay type: biochemical
hMAO-A = target: T1, hMAO-A (Homo sapiens, UniProt P21397); test: hMAO-A inhibition, in vitro fluorometric technique; assay type: biochemical
T1 sequence (P21397 1-527): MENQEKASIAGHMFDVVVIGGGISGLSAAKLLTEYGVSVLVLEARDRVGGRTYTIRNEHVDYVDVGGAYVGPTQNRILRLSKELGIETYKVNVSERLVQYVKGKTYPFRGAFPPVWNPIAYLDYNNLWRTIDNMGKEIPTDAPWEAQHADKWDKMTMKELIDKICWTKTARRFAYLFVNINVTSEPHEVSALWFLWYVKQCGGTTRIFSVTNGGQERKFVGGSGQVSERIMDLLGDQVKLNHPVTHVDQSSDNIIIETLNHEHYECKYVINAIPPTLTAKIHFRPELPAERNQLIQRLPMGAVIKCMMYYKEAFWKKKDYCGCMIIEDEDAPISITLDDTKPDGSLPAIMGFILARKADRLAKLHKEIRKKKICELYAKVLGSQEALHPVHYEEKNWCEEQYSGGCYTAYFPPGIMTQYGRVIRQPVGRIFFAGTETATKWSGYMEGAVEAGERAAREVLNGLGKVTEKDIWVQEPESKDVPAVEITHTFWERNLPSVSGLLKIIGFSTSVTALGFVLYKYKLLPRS

Sequence of Acetylcholinesterase from Electrophorus electricus (electric eel) (O42275 24-633): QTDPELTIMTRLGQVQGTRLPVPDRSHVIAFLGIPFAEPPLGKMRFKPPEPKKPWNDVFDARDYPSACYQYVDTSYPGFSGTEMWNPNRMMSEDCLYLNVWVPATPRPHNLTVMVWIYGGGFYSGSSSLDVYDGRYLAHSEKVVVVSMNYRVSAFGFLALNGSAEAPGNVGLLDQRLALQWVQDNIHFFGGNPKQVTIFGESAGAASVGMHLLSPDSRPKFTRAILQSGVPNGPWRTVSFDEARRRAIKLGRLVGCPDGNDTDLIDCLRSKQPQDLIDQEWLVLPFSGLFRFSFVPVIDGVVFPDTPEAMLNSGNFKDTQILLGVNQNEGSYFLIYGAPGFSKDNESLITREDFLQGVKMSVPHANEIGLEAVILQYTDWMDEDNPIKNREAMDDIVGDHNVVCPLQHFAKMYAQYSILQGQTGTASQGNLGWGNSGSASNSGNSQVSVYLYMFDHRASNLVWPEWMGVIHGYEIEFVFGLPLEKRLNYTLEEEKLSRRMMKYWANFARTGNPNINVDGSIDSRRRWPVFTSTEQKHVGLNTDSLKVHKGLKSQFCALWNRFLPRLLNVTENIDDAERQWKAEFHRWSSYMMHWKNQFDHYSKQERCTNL
Sequence of Butyrylcholinesterase from equine serum (P81908 whole entry): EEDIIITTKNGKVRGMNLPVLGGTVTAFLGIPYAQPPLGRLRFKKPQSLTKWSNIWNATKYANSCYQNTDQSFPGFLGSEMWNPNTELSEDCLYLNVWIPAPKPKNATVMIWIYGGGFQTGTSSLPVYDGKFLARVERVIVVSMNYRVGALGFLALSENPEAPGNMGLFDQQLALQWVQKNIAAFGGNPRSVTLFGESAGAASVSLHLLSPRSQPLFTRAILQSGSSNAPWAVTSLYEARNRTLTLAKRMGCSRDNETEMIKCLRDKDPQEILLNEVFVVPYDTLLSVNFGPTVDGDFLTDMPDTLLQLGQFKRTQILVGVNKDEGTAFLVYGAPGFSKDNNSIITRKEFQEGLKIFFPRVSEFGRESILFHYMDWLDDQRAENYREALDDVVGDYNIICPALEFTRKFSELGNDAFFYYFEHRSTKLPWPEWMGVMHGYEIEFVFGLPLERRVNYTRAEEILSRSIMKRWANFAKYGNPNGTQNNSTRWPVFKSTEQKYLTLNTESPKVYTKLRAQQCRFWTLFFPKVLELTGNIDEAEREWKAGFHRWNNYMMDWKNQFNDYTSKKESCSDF

For COc1cccc2cc(/C(C)=N/NC(=O)Cn3ccc4cccnc43)c(=O)oc12 [Compound 3b, (E)-N’-(1-(8-methoxy-2-oxo-2 H-chromen-3-yl)ethylidene)-2-(1 H-pyrrolo[2,3-b]pyridin-1-yl)acetohydrazide], the IC50 [1] was 26.5 ± 3.42 µM, the Ki [1] was 15.7 ± 1.37 µM and the IC50 [2] was > 100 µM. For the same compound, the Ki [2] was > 100 µM and the IC50 (hMAO-A) was 1.97 ± 0.1 µM.
With COc1cccc2cc(/C(C)=N/NC(=O)Cc3ccccc3)c(=O)oc12 [Compound 3i, (E)-N’-(1-(8-methoxy-2-oxo-2 H-chromen-3-yl)ethylidene)-2-phenylacetohydrazide] the IC50 [1] was 18.4 ± 1.98 µM, the Ki [1] was 15.4 ± 2.01 µM and the IC50 [2] was 79.3 ± 5.03 µM. For the same compound, the Ki [2] was 70.3 ± 3.57 µM and the IC50 (hMAO-A) was 1.87 ± 0.07 µM.
With COc1cccc2cc(/C(C)=N/NC(=O)c3ccco3)c(=O)oc12 [Compound 3f, (E)-N’-(1-(8-methoxy-2-oxo-2 H-chromen-3-yl)ethylidene)furan-2-carbohydrazide] the IC50 [1] was 23.8 ± 2.44 µM, the Ki [1] was 19.6 ± 2.44 µM and the IC50 [2] was 78.2 ± 5.8 µM. For the same compound, the Ki [2] was 68.5 ± 5.07 µM and the IC50 (hMAO-A) was 3.94 ± 0.43 µM.
COc1cccc2cc(/C(C)=N/NC(=O)c3cc4ccccc4cc3O)c(=O)oc12 [Compound 3a, (E)-3-Hydroxy-N’-(1-(8-methoxy-2-oxo-2 H-chromen-3-yl)ethylidene)-2-naphthohydrazide] showed an IC50 [1] of 7.4 ± 0.14 µM, a Ki [1] of 6.03 ± 0.4 µM and an IC50 [2] of 74.4 ± 4.98 µM. The Ki [2] was 63.3 ± 5.38 µM and the IC50 (hMAO-A) was 1.44 ± 0.03 µM.
COc1cccc2cc(/C(C)=N/NC(=O)c3ccccn3)c(=O)oc12 [Compound 3l, (E)-N’-(1-(8-methoxy-2-oxo-2 H-chromen-3-yl)ethylidene)picolinohydrazide] was tested, and the IC50 [1] was 8.54 ± 1.01 µM, the Ki [1] was 7.08 ± 0.64 µM and the IC50 [2] was 75 ± 5.3 µM. It also gave a Ki [2] of 69 ± 5.3 µM and an IC50 (hMAO-A) of 1.65 ± 0.34 µM.
For COc1cccc2cc(/C(C)=N/NC(=O)c3ccccc3Br)c(=O)oc12 [Compound 3c, (E)-2-bromo-N’-(1-(8-methoxy-2-oxo-2 H-chromen-3-yl)ethylidene)benzohydrazide], the IC50 [1] was 17 ± 1.9 µM, the Ki [1] was 11.3 ± 0.93 µM and the IC50 [2] was > 100 µM. The Ki [2] was > 100 µM and the IC50 (hMAO-A) was 2.03 ± 0.08 µM.
With COc1cccc2cc(/C(C)=N/NC(=O)c3cccs3)c(=O)oc12 [Compound 3j, (E)-N’-(1-(8-methoxy-2-oxo-2 H-chromen-3-yl)ethylidene)thiophene-2-carbohydrazide] the IC50 [1] was 21.9 ± 3.24 µM, the Ki [1] was 14.6 ± 1.05 µM and the IC50 [2] was > 100 µM. The Ki [2] was > 100 µM and the IC50 (hMAO-A) was 2.5 ± 0.31 µM.
Compound COc1cccc2cc(/C(C)=N/NC(=O)c3ccc(F)cc3)c(=O)oc12 [Compound 3k, (E)-4-fluoro-N’-(1-(8-methoxy-2-oxo-2 H-chromen-3-yl)ethylidene)benzohydrazide] has an IC50 [1] of 12.4 ± 0.98 µM, a Ki [1] of 7.95 ± 0.57 µM and an IC50 [2] of 71.5 ± 3.68 µM. It also gave a Ki [2] of 66.1 ± 4.62 µM and an IC50 (hMAO-A) of 1.83 ± 0.17 µM.
For COc1cccc2cc(/C(C)=N/NC(=O)c3ccccc3C)c(=O)oc12 [Compound 3d, (E)-N’-(1-(8-methoxy-2-oxo-2 H-chromen-3-yl)ethylidene)-2-methylbenzohydrazide], the IC50 [1] was 20.2 ± 2.67 µM, the Ki [1] was 13.5 ± 1.24 µM and the IC50 [2] was 90.1 ± 3.78 µM. It also gave a Ki [2] of 69.9 ± 5.75 µM and an IC50 (hMAO-A) of 1.73 ± 0.05 µM.
Compound COc1cccc2cc(/C(C)=N/NC(=O)c3cccc4[nH]ccc34)c(=O)oc12 [Compound 3g, (E)-N’-(1-(8-methoxy-2-oxo-2 H-chromen-3-yl)ethylidene)-1 H-indole-4-carbohydrazide] has an IC50 [1] of 29 ± 4.3 µM, a Ki [1] of 21 ± 3.48 µM and an IC50 [2] of 81.5 ± 6.02 µM. It also gave a Ki [2] of 73.6 ± 4.66 µM and an IC50 (hMAO-A) of 2.08 ± 0.15 µM.
COc1cccc2cc(/C(C)=N/NC(=O)c3ccccc3Cl)c(=O)oc12 [Compound 3m, (E)-2-chloro-N’-(1-(8-methoxy-2-oxo-2 H-chromen-3-yl)ethylidene)benzohydrazide] showed an IC50 [1] of 14.8 ± 1.4 µM, a Ki [1] of 10.4 ± 0.59 µM and an IC50 [2] of 82.3 ± 6.9 µM. The Ki [2] was 71.4 ± 7.01 µM and the IC50 (hMAO-A) was 1.9 ± 0.3 µM.
For COc1cccc2cc(/C(C)=N/NC(=O)c3ccc(C(F)(F)F)cc3)c(=O)oc12 [Compound 3e, (E)-N’-(1-(8-methoxy-2-oxo-2 H-chromen-3-yl)ethylidene)-4-(trifluoromethyl) benzohydrazide], the IC50 [1] was 8.01 ± 0.7 µM, the Ki [1] was 7.38 ± 1.01 µM and the IC50 [2] was 65.4 ± 4.55 µM. It also gave a Ki [2] of 57 ± 3.95 µM and an IC50 (hMAO-A) of 1.51 ± 0.13 µM.
COc1cccc2cc(/C(C)=N/NC(=O)c3cccc(Cl)c3)c(=O)oc12 [Compound 3h, (E)-3-chloro-N’-(1-(8-methoxy-2-oxo-2 H-chromen-3-yl)ethylidene)benzohydrazide] was tested, and the IC50 [1] was 41.1 ± 3.28 µM, the Ki [1] was 25.8 ± 1.97 µM and the IC50 [2] was 85 ± 3.48 µM. It also gave a Ki [2] of 77 ± 6.92 µM and an IC50 (hMAO-A) of 1.8 ± 0.26 µM.
